Values after ≈ are worked out from the molar mass of the structure shown.
Legend:
Assay type in all cases: cell-based
Ref 1 K. pneumoniae = experiment: MIC by microdilution in broth, reference strain Ref 1; design: key to Phenotype (R = resistant, S = sensitive): RA signifies resistance to amoxicillin; RC signifies resistance to ceftriaxone; RM signifies resistance to meropenem; RO resistance to oxacillin; SA signifies sensitive to amoxicillin; SC signifies sensitive to ceftriaxone; SM signifies sensitive to meropenem; SO sensitive to oxacillin; conditions: for Phenotype (R = resistant, S = sensitive): KPC-2; for MIC: Klebsiella pneumoniae, KPC-2, microdilution in broth, read-out: Minimum inhibitory concentration (MIC in μg/ml)
Procedure: (§1) The minimum inhibitory concentration (MIC in μg/ml) was determined by microdilution in broth, a technique very widely used by a person skilled in the art.

Ref 2 K. pneumoniae = experiment: MIC by microdilution in broth, reference strain Ref 2; design: key to Phenotype (R = resistant, S = sensitive): RA signifies resistance to amoxicillin; RC signifies resistance to ceftriaxone; RM signifies resistance to meropenem; RO resistance to oxacillin; SA signifies sensitive to amoxicillin; SC signifies sensitive to ceftriaxone; SM signifies sensitive to meropenem; SO sensitive to oxacillin; conditions: for MIC: Klebsiella pneumoniae, OXA-48, microdilution in broth, read-out: Minimum inhibitory concentration (MIC in μg/ml); for Phenotype (R = resistant, S = sensitive): OXA-48
Procedure: as §1

Ref 5 E. coli = experiment: MIC by microdilution in broth, reference strain Ref 5; design: key to Phenotype (R = resistant, S = sensitive): RA signifies resistance to amoxicillin; RC signifies resistance to ceftriaxone; RM signifies resistance to meropenem; RO resistance to oxacillin; SA signifies sensitive to amoxicillin; SC signifies sensitive to ceftriaxone; SM signifies sensitive to meropenem; SO sensitive to oxacillin; conditions: CTX-M; for MIC: Escherichia coli, microdilution in broth, read-out: Minimum inhibitory concentration (MIC in μg/ml)
Procedure: as §1

[1] = tested on: Isolate 5 (Escherichia coli); experiment: Resistance characterization on functionalized analysis plate, MALDI-TOF (Example 4); conditions: isolate 5 (E. coli); threshold identification probability ≥90% for at least 3 deposits out of 4; amoxicillin 2, ceftriaxone 24, meropenem 2 μg/ml
Procedure: (§2) This cassette comprises a gasket so as to be able to dispose the analysis plate on a sponge impregnated to saturation with Muller-Hinton culture medium. The sponge impregnated with a culture medium serves as a support, and it is made of porous material as described in the description.
(§3) A cover was placed on the cassette containing the analysis plate so as to be clipped on the cassette and close the device without touching the top of the drops.
(§4) The analysis cassettes thus prepared were incubated in the stove at 37° C. for 2, 3, 4 or 5 hours.
(§5) At the end of the incubation step, the analysis plates are placed on very absorbent, dry blotting paper, with an absorption capacity of 25 μL·cm^−2, so that the drops present on the analysis plate are aspirated by capillarity through the analysis zones made of porous material.
(§6) 1 μl of HCCA matrix, alpha-cyano 4-hydroxycinnamic acid (VITEK®MS-CHCA, bioMérieux reference 411071) was deposited on the analysis zones, comprising the microorganisms and the antimicrobial agent, and on the calibration zones comprising the calibrant.
(§7) The analysis plate is then dried and analyzed by VITEK®MS as described in example 1.
(§8) The isolates identified in example 1 were diluted to 0.5 McFarland (McF) in Muller-Hinton medium (bioMérieux reference AEB 110699), then diluted again to 1/100° for the Gram-negative bacteria and to 1/10° for the Gram-positive bacteria, always in Muller-Hinton medium.
(§9) Drops of 2 μl of the final dilutions were deposited on the analysis zones of the analysis plates according to the invention as described in example 2. As before, the dilutions of E. coli and of K. pneumoniae were analyzed on the targets with 16 deposits of amoxicillin, 16 deposits of ceftriaxone and 16 deposits of meropenem. The dilutions of Staphylococci were analyzed on the targets with 2 μg/ml of oxacillin.
(§10) The analysis was carried out according to the same procedure as in example 3 with an incubation of 4 h for all the microorganisms. Moreover, the results were interpreted as in example 3, i.e. with a threshold of identification probability greater than or equal to 90% for at least 3 deposits out of 4.

[2] = tested on: Isolate 8 (Klebsiella pneumoniae); experiment: as above; conditions: isolate 8 (K. pneumoniae); threshold identification probability ≥90% for at least 3 deposits out of 4; amoxicillin 2, ceftriaxone 24, meropenem 2 μg/ml
Procedure: as §2, §3, §4, §5, §6, §7, §8, §9, §10

[3] = tested on: Isolate 3 (Escherichia coli); experiment: as above; conditions: threshold identification probability ≥90% for at least 3 deposits out of 4, amoxicillin 2, ceftriaxone 24, meropenem 2 μg/ml
Procedure: as §2, §3, §4, §5, §6, §7, §8, §9, §10

[4] = tested on: Isolate 7 (Klebsiella pneumoniae); experiment: as above; conditions: isolate 7 (K. pneumoniae); threshold identification probability ≥90% for at least 3 deposits out of 4; amoxicillin 2, ceftriaxone 24, meropenem 2 μg/ml
Procedure: as §2, §3, §4, §5, §6, §7, §8, §9, §10

[5] = tested on: Isolate 1 (Escherichia coli); experiment: as above; conditions: threshold identification probability ≥90% for at least 3 deposits out of 4, amoxicillin 2, ceftriaxone 24, meropenem 2 μg/ml
Procedure: as §2, §3, §4, §5, §6, §7, §8, §9, §10

Ref 4 E. coli = experiment: MIC by microdilution in broth, reference strain Ref 4; design: key to Phenotype (R = resistant, S = sensitive): RA signifies resistance to amoxicillin; RC signifies resistance to ceftriaxone; RM signifies resistance to meropenem; RO resistance to oxacillin; SA signifies sensitive to amoxicillin; SC signifies sensitive to ceftriaxone; SM signifies sensitive to meropenem; SO sensitive to oxacillin; conditions: for MIC: Escherichia coli, microdilution in broth, read-out: Minimum inhibitory concentration (MIC in μg/ml)
Procedure: as §1

Ref 3 E. coli = experiment: MIC by microdilution in broth, reference strain Ref 3; design: key to Phenotype (R = resistant, S = sensitive): RA signifies resistance to amoxicillin; RC signifies resistance to ceftriaxone; RM signifies resistance to meropenem; RO resistance to oxacillin; SA signifies sensitive to amoxicillin; SC signifies sensitive to ceftriaxone; SM signifies sensitive to meropenem; SO sensitive to oxacillin; conditions: for MIC: Escherichia coli, TEM-2, microdilution in broth, read-out: Minimum inhibitory concentration (MIC in μg/ml); for Phenotype (R = resistant, S = sensitive): TEM-2
Procedure: as §1

Row | SMILES | Phenotype (R = resistant, S = sensitive) (Ref 1 K. pneumoniae) | MIC (Ref 1 K. pneumoniae) | MIC (Ref 2 K. pneumoniae) | Phenotype (R = resistant, S = sensitive) (Ref 2 K. pneumoniae) | Phenotype (R = resistant, S = sensitive) (Ref 5 E. coli) | MIC (Ref 5 E. coli) | Isolate characterized as resistant or sensitive to the antibiotic [1] | Isolate characterized as resistant or sensitive to the antibiotic [2] | Isolate characterized as resistant or sensitive to the antibiotic [3] | Isolate characterized as resistant or sensitive to the antibiotic [4] | Isolate characterized as resistant or sensitive to the antibiotic [5] | Phenotype (R = resistant, S = sensitive) (Ref 4 E. coli) | MIC (Ref 4 E. coli) | MIC (Ref 3 E. coli) | Phenotype (R = resistant, S = sensitive) (Ref 3 E. coli)
1 | CC1(C)S[C@@H]2[C@H](NC(=O)[C@H](N)c3ccc(O)cc3)C(=O)N2[C@H]1C(=O)O [Amoxicillin, amoxicillin] | RA | > 128 µg/mL | 64 µg/mL (≈ 175 µM) | RA | RA | > 128 µg/mL | resistant | resistant | resistant | resistant | resistant | SA | 1 µg/mL (≈ 2.74 µM) | 32 µg/mL (≈ 87.6 µM) | RA
2 | CO/N=C(\C(=O)N[C@@H]1C(=O)N2C(C(=O)O)=C(CSc3nc(=O)c(=O)[nH]n3C)CS[C@H]12)c1csc(N)n1 [Ceftriaxone, ceftriaxone] | RC | 64 µg/mL (≈ 115 µM) | 32 µg/mL (≈ 57.7 µM) | RC | RC | 8 µg/mL (≈ 14.4 µM) | sensitive | resistant | resistant | sensitive | sensitive | SC | 0.25 µg/mL (≈ 0.451 µM) | 16 µg/mL (≈ 28.9 µM) | RC
3 | C[C@@H](O)[C@H]1C(=O)N2C(C(=O)O)=C(S[C@@H]3CN[C@H](C(=O)N(C)C)C3)[C@H](C)[C@H]12 [Meropenem, meropenem] | RM | 64 µg/mL (≈ 167 µM) | 0.25 µg/mL (≈ 0.652 µM) | SM | SM | 0.5 µg/mL (≈ 1.3 µM) | sensitive | sensitive | sensitive | sensitive | sensitive | SM | 0.06 µg/mL (≈ 0.156 µM) | 0.5 µg/mL (≈ 1.3 µM) | SM
